Test results reported in ChEMBL document CHEMBL5465560, “Selectivity Literature for EUbOPEN Chemogenomic Library” (2024).

What was measured:
[1] = biological target: T1, Serine/threonine-protein kinase MAK (Homo sapiens) (UniProt P20794); assay: Selectivity interaction (KinomeScan (DiscoverX)) EUB0001079a MAK; conditions: at 1 µM
T1 sequence (whole entry): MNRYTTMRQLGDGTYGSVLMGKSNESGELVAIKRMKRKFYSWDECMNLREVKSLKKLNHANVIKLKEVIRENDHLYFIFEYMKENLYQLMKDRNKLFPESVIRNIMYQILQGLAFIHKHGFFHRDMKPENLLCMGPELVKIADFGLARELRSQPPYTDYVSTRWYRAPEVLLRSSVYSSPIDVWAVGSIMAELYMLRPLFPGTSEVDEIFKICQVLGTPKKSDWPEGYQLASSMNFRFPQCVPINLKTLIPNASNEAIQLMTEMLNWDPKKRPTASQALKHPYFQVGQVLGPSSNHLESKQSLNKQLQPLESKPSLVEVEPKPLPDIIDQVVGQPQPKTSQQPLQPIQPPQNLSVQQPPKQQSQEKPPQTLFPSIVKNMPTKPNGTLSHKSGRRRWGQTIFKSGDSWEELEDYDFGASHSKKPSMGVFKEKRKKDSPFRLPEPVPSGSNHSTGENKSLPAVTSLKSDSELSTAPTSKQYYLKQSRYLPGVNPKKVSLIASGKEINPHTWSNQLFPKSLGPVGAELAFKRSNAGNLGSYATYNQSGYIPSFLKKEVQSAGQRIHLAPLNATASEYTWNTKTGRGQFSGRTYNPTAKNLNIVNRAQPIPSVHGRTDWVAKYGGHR

[2] = biological target: Mitogen-activated protein kinase 10 (Homo sapiens, UniProt P53779); assay: Selectivity interaction (Kinase panel (DSF assay)) EUB0001558a MAPK10
Chain of Mitogen-activated protein kinase 10 (P53779 whole entry): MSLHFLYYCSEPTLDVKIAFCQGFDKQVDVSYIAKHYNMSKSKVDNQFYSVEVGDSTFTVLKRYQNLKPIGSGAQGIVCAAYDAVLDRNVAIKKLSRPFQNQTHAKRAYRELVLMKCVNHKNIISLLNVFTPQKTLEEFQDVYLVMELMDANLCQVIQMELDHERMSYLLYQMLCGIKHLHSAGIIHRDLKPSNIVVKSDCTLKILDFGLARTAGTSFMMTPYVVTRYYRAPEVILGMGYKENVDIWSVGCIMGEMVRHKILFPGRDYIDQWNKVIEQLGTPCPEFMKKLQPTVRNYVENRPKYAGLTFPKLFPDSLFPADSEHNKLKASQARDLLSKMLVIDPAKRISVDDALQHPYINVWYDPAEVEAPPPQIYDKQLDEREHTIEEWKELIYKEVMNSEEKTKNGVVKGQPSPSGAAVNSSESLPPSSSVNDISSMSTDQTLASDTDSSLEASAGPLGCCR

[3] = biological target: Tyrosine-protein kinase Fyn (Homo sapiens) (UniProt P06241); assay: Selectivity interaction (KinomeScan (DiscoverX)) EUB0000045b FYN
Chain of Tyrosine-protein kinase Fyn (Homo sapiens) (P06241 2-537 limits assumed): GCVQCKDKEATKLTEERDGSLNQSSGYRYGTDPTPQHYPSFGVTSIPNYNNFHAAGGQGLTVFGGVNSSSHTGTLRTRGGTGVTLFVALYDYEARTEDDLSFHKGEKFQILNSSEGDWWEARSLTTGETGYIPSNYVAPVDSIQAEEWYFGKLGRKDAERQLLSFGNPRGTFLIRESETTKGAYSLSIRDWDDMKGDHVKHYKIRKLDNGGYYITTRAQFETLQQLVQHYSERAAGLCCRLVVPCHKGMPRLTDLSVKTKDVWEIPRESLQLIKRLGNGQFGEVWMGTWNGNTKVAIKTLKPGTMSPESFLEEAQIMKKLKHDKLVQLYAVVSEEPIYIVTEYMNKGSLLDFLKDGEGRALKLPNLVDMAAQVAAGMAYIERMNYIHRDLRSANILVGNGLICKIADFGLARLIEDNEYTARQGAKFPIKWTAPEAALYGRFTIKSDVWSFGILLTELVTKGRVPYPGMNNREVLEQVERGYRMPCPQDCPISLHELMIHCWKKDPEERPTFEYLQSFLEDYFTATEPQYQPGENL

[4] = biological target: T2, Serine/threonine-protein kinase LATS1 (Homo sapiens) (UniProt O95835); assay: Selectivity interaction (Kinase panel (KiNativ target engagement assay in Jurkat cells)) EUB0001635a LATS1; assay type: cell-based; conditions: at 1 µM
T2 sequence (whole entry): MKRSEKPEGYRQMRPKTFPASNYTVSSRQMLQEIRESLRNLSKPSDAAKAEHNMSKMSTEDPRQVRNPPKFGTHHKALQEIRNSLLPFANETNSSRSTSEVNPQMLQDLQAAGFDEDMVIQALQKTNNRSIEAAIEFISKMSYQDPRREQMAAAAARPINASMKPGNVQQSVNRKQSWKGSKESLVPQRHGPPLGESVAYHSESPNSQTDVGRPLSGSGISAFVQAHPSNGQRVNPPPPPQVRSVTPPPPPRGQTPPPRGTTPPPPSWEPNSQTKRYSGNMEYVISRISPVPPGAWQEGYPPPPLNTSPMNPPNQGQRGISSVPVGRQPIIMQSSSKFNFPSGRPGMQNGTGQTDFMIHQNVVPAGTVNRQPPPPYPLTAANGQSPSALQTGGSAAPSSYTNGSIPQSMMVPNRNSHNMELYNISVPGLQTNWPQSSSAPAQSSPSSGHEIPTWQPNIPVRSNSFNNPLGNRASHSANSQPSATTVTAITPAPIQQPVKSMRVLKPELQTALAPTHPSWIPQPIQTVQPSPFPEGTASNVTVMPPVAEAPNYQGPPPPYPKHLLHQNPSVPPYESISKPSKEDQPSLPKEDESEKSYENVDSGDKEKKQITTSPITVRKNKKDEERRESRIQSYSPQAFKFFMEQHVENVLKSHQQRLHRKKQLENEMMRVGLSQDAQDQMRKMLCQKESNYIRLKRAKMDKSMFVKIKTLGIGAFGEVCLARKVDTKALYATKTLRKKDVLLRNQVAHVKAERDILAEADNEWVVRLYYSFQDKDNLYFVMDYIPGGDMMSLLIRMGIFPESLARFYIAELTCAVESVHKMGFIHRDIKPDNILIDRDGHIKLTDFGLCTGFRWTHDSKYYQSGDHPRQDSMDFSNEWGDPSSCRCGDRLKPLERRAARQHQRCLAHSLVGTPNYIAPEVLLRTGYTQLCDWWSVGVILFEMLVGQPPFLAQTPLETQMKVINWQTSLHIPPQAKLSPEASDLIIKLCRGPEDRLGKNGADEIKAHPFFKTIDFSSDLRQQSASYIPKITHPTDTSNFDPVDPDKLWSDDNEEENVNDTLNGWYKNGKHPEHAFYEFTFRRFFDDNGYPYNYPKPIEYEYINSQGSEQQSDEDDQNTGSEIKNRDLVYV

[5] = Selectivity interaction (KinomeScan (DiscoverX)) EUB0000229b CDK2H; conditions: at 1 µM
[6] = biological target: Ribosomal protein S6 kinase alpha-6 (Homo sapiens, UniProt Q9UK32); assay: Selectivity interaction (ProQinase) EUB0000171b RPS6KA6
Chain of Ribosomal protein S6 kinase alpha-6 (Q9UK32 whole entry): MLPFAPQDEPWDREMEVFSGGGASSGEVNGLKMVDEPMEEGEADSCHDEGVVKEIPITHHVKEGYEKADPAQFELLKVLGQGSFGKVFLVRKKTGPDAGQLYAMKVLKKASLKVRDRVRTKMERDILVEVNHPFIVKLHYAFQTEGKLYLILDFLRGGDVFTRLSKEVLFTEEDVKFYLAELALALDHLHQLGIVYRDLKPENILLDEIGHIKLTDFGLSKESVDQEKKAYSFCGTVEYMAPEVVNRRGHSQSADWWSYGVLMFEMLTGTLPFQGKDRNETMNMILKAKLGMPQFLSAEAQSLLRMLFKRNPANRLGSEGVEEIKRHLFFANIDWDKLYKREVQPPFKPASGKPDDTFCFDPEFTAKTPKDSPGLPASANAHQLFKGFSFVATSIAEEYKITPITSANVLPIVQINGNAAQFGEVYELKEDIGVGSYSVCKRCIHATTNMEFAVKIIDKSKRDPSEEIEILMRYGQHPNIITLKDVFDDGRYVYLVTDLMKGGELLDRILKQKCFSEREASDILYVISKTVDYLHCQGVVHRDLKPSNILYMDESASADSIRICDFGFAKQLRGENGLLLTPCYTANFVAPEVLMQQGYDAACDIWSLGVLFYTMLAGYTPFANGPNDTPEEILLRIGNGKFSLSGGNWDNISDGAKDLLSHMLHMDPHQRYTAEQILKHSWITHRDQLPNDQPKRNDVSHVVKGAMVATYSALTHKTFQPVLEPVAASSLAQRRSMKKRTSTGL

[7] = biological target: T3, Serine/threonine-protein kinase NLK (Homo sapiens) (UniProt Q9UBE8); assay: Selectivity interaction (KinomeScan (DiscoverX)) EUB0001868a NLK; conditions: at 1 µM
T3 sequence (whole entry): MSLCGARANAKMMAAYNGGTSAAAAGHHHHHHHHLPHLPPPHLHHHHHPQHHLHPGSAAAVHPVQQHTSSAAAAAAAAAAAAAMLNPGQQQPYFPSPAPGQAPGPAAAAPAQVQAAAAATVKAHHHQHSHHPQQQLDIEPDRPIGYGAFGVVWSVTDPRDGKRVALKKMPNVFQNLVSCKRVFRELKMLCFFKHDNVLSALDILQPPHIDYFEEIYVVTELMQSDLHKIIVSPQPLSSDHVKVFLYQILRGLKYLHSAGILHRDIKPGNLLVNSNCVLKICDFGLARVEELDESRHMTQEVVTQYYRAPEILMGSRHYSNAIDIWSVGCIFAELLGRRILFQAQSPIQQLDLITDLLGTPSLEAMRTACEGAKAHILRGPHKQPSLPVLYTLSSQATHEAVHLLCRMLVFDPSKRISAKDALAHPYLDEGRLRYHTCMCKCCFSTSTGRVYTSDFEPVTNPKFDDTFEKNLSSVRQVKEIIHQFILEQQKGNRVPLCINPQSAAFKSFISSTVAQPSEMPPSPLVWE

Nc1cnc(N2CCc3cc(S(=O)(=O)Nc4c(F)cc(Cl)cc4F)cc(N4CCCC4=O)c32)nc1 [TP-020n] showed a % of control [1] of 96%.

Work on CC(C)(O)[C@H](F)CN1Cc2cc(NC(=O)c3cnn4cccnc34)c(N3CCOCC3)cc2C1=O yielded a dTM [2] of 1.5 K.

C=CC(=O)Nc1cc(-n2c(=O)ccc3cnc4ccc(-c5ccc(NS(C)(=O)=O)cc5)cc4c32)ccc1C gave a % of control ([3]; at 1 µM) of 100% and a % of control ([3]; at 10 µM) of 98%.

C=CC(=O)Nc1ccc(C(=O)Nc2[nH]nc3c2CN(C(=O)N[C@H](CN(C)C)c2ccccc2)C3(C)C)cc1 showed a % of engagement [4] of 3.9%.

In the case of COc1cc(N(C)c2ccnc3ccc(C(F)(F)F)cc23)cc(OC)c1OC, the % binding [5] is reported as 100%.

Work on C=CC(=O)Nc1cccc(C(=O)Nc2ccc(Nc3cc(-c4[nH]c(SC)nc4C)ccn3)cc2)c1 yielded a % of control ([6]; at 1 µM) of 88% and a % of control ([6]; at 5 µM) of 68%.

In the case of Cc1cc(-c2ccnc(Nc3cnn(C)c3)n2)ccc1CNC(=O)N1CC(OC(C)C)C1, the % of control [7] is reported as 46%.
